The relative IC50 is the concentration at the midpoint between the plateaus of the fitted inhibition curve.

The record followed here is the supplement of paper PMC4932681.

Test [1] deals with MCF-7. Description: relative IC50 (midpoint of fitted logistic curve, plateau may be below 50% inhibition; CellTiter-Glo viability); higher = less potent. The settings on record: 72 h. As for the experimental part:
(§1)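 FIMM FO2B library drugs were plated at 5 concentrations spanning a 10,000-fold range in 384-well plates. Cells were incubated for 72 h at 37 °C and viability was read by CellTiter-Glo, normalised to DMSO (0% inhibition) and 100 µM benzethonium chloride (100% inhibition). IC50 values come from logistic dose-response fits (Breeze pipeline). Tamoxifen-resistant lines and the 'in 1µM tamoxifen' parental arms were tested in medium with 1 µM 4-OH-tamoxifen.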
A general note: In ATP-based viability assays light output follows the ATP content of the culture.

Test [2] concerns T-47D. The test is described as above. To be noted: 72 h. As for the experimental part: as §1
For test [3], the system named is ZR-75-1 Tam2. The test is described as above. The settings on record: 4-OH-tamoxifen in medium 1 µM; 72 h. As for the experimental part: as §1
The subject of test [4] is BT-474 Tam1. The test is described as above. To be noted: 4-OH-tamoxifen in medium 1 µM; 72 h. As to the method:
as §1

The subject of test [5] is BT-474 Tam2. Described as above. The settings on record: 4-OH-tamoxifen in medium 1 µM; 72 h. As for the experimental part:
as §1

For test [6], the system named is BT-474. Described as above. The settings on record: 72 h. As to the method:
as §1

The test system of test [7] is ZR-75-1 Tam1. Description: drug sensitivity score (DSS) (DSS (dimensionless)); higher = more sensitive; extreme values may be limits of the assay. To be noted: 4-OH-tamoxifen in medium 1 µM; 72 h. As to the method: (§2)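 FIMM FO2B library drugs were tested at 5 concentrations (10,000-fold range) for 72 h, with CellTiter-Glo viability normalised to DMSO and benzethonium chloride controls. The Drug Sensitivity Score (DSS) is computed from the fitted logistic dose-response curve (area-based; 0 = inactive). Resistant lines and the 'in 1µM tamoxifen' arms were tested in 1 µM 4-OH-tamoxifen.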

Test [8] concerns MCF-7. The test is described as above. To be noted: 72 h. As for the experimental part: as §2
Test [9] concerns T-47D. The description is as above. To be noted: 72 h. As for the experimental part:
as §2

The next test deals with T-47D Tam2. The test is described as above. To be noted: 4-OH-tamoxifen in medium 1 µM; 72 h. As for the experimental part:
as §2

In test [10] the test system is ZR-75-1 Tam2. The test is described as above. To be noted: 4-OH-tamoxifen in medium 1 µM; 72 h. As to the method: as §2
A further test concerns MCF-7 Tam1. The description is as above. To be noted: 4-OH-tamoxifen in medium 1 µM; 72 h. As to the method:
as §2

Test [11] deals with BT-474 Tam1. Described as above. To be noted: 4-OH-tamoxifen in medium 1 µM; 72 h. As to the method: as §2
The test system of test [12] is BT-474 Tam2. Described as above. To be noted: 4-OH-tamoxifen in medium 1 µM; 72 h. As to the method: as §2
Another test concerns T-47D Tam1. Described as above. To be noted: 4-OH-tamoxifen in medium 1 µM; 72 h. As to the method:
as §2

Test [13] relates to ZR-75-1. The description is as above. The settings on record: 72 h. As to the method: as §2
Test [14] relates to BT-474. The test is described as above. To be noted: 72 h. As for the experimental part:
as §2

For test [15], the system named is ZR-75-1 Tam1. Description: relative IC50 (midpoint of fitted logistic curve, plateau may be below 50% inhibition; CellTiter-Glo viability); higher = less potent. The settings on record: 4-OH-tamoxifen in medium 1 µM; 72 h. As for the experimental part: as §1
The subject of test [16] is ZR-75-1. The test is described as above. The settings on record: 72 h. As for the experimental part:
as §1

`c1ccc2c(CCNc3ccc(Nc4ccncc4)cc3)c[nH]c2c1`: the “relative IC50” value was 3.72 µM with MCF-7 [1] (4-OH-tamoxifen in medium 0 µM); more than 10 µM with T-47D [2] (4-OH-tamoxifen in medium 1 µM); 2.76 µM in the test with ZR-75-1 Tam2 [3]; 3.22 µM with BT-474 Tam1 [4]; 3.9 µM in the test on BT-474 Tam2 [5]; more than 10 µM in the test on BT-474 [6] (4-OH-tamoxifen in medium 0 µM). In addition, the “relative IC50” value with BT-474 [6] (4-OH-tamoxifen in medium 1 µM) was found to be 3.98 µM. The drug sensitivity score in the test with ZR-75-1 Tam1 [7] is 0.823; in the test with MCF-7 [8] (4-OH-tamoxifen in medium 0 µM), 2.88; in the test with MCF-7 [8] (4-OH-tamoxifen in medium 1 µM), 0.416; in the test on T-47D [9] (4-OH-tamoxifen in medium 0 µM), 0.192; in the test on T-47D [9] (4-OH-tamoxifen in medium 1 µM) it was 0; in the test with T-47D Tam2, 0.542. The drug sensitivity score in the test on ZR-75-1 Tam2 [10] was 1.69; in the test on MCF-7 Tam1, 0.0212; in the test on BT-474 Tam1 [11], 5.04; with BT-474 Tam2 [12] it was 1.44; in the test with T-47D Tam1, 0.685; in the test with ZR-75-1 [13] (4-OH-tamoxifen in medium 0 µM), 0.0538. Besides, the drug sensitivity score was found to be 0.973 in the test with ZR-75-1 [13] (4-OH-tamoxifen in medium 1 µM), 0 in the test on BT-474 [14] (4-OH-tamoxifen in medium 0 µM) and 3.42 with BT-474 [14] (4-OH-tamoxifen in medium 1 µM).

`CO[C@H]1C[C@@H]2CC[C@@H](C)[C@@](O)(O2)C(=O)C(=O)N2CCCC[C@H]2C(=O)O[C@H]([C@H](C)C[C@@H]2CC[C@@H](OCCO)[C@H](OC)C2)CC(=O)[C@H](C)/C=C(\C)[C@@H](O)[C@@H](OC)C(=O)[C@H](C)C[C@H](C)/C=C/C=C/C=C/1C` [Everolimus]: the “relative IC50” value in the test with ZR-75-1 Tam1 [15] came out at 0.00352 µM; with MCF-7 [1] (4-OH-tamoxifen in medium 0 µM), 0.00104 µM; in the test on MCF-7 [1] (4-OH-tamoxifen in medium 1 µM), 0.000952 µM; in the test on ZR-75-1 Tam2 [3], 0.00123 µM; in the test on ZR-75-1 [16] (4-OH-tamoxifen in medium 0 µM), 0.00127 µM; in the test on ZR-75-1 [16] (4-OH-tamoxifen in medium 1 µM), 0.00347 µM. For the same compound, the drug sensitivity score was determined as 4.45 in the test with ZR-75-1 Tam1 [7]; 11.6 with MCF-7 [8] (4-OH-tamoxifen in medium 0 µM); 8.24 in the test with MCF-7 [8] (4-OH-tamoxifen in medium 1 µM); 5.82 with T-47D [9] (4-OH-tamoxifen in medium 0 µM); 2.41 in the test on T-47D [9] (4-OH-tamoxifen in medium 1 µM); 3.34 with T-47D Tam2. Also, the drug sensitivity score is 9.02 in the test with ZR-75-1 Tam2 [10]; 0.336 in the test on MCF-7 Tam1; 1.16 in the test on BT-474 Tam1 [11]; 2.18 in the test on BT-474 Tam2 [12]; 4.62 in the test on T-47D Tam1; 8.05 with ZR-75-1 [13] (4-OH-tamoxifen in medium 0 µM). For the same compound, the drug sensitivity score with ZR-75-1 [13] (4-OH-tamoxifen in medium 1 µM) came to 4.22; in the test on BT-474 [14] (4-OH-tamoxifen in medium 0 µM), 7.06; in the test with BT-474 [14] (4-OH-tamoxifen in medium 1 µM) it was 0.135.

Consider `CNC(=O)c1ccccc1Sc1ccc2c(/C=C/c3ccccn3)n[nH]c2c1` [Axitinib], for which the “relative IC50” value is more than 10 µM in the test with ZR-75-1 Tam1 [15]; 3.32 µM with MCF-7 [1] (4-OH-tamoxifen in medium 0 µM); 1.48 µM in the test with MCF-7 [1] (4-OH-tamoxifen in medium 1 µM); 2.77 µM in the test on T-47D [2] (4-OH-tamoxifen in medium 0 µM); 3.25 µM in the test with BT-474 Tam1 [4]; more than 10 µM in the test with ZR-75-1 [16] (4-OH-tamoxifen in medium 0 µM). For the same compound, the “relative IC50” value with BT-474 [6] (4-OH-tamoxifen in medium 1 µM) was 1.65 µM. For the same compound, the drug sensitivity score with ZR-75-1 Tam1 [7] turned out to be 0; in the test with MCF-7 [8] (4-OH-tamoxifen in medium 0 µM) it was 1.43; in the test on MCF-7 [8] (4-OH-tamoxifen in medium 1 µM), 2.88; in the test with T-47D [9] (4-OH-tamoxifen in medium 0 µM), 2.18; in the test on T-47D [9] (4-OH-tamoxifen in medium 1 µM), 0.979; with T-47D Tam2, 0.968. For the same compound, the drug sensitivity score in the test with ZR-75-1 Tam2 [10] was determined as 1.49; in the test with MCF-7 Tam1, 1.84; in the test on BT-474 Tam1 [11], 2.01; in the test with BT-474 Tam2 [12], 1.5; in the test with T-47D Tam1, 1.41; in the test with ZR-75-1 [13] (4-OH-tamoxifen in medium 0 µM) it was 0. The drug sensitivity score stood at 0.656 with ZR-75-1 [13] (4-OH-tamoxifen in medium 1 µM), 0.518 in the test with BT-474 [14] (4-OH-tamoxifen in medium 0 µM) and 3.56 in the test with BT-474 [14] (4-OH-tamoxifen in medium 1 µM).
